Source: patent publication US6011013A, “Contraceptive compositions and methods” (Oregon Health Sciences University, priority 1998, dated 2000)

Columns and labels:
PKA = PKA activity of sperm treated whole, then washed and lysed; type: cell-based, bovine; conditions: 50 μM
Experimental: (§1) (A). Bovine caudal and caput sperm were incubated in buffer A in the presence or absence of 50 μM CDA and/or 50 μM H-89. When sperm were treated with both CDA and H-89, the H-89 was added 15 min prior to CDA. Motility was assessed by CASMA at 15 min following treatment. (B) Bovine sperm were incubated as described for A and then assessed for PKA activity. Where indicated, 10 μM cAMP was added to the PKA assay.
PKA Activity PKA was assayed as previously described (Carr et al., J. Biol. Chem. 268:20729-20732, 1993) with minor changes. Whole caput or caudal sperm were treated with 2-chloro-2-deoxyadenosine (50 μM), H-89 (50 μM), or both for 30 min. at 37° C. The sperm were then washed twice in ice cold homogenization buffer supplemented with protease inhibitors, benzamidine (10 mM), leupeptin (4 μg/ml), and N-tosyl-L-phenylalanine chloromethyl ketone (TPCK) (100 μM), and sonicated for one min. Reaction mixtures (20 uL total) contained 250 μM kemptide, 250 μM (γ-^32 P)ATP, 25 mM Na3 VO4, 50 mM 3-[N-morpholino]propanesulfonic acid (MOPS) (pH=7.0), 10 mM MgCl2, 0.25 mg/ml BSA and where indicated, 10 μM cAMP. Assays were initiated by addition of labeled ATP, incubated for 2 min at 30° C., and stopped by addition of 30 μL of 1N HCl. […] The papers were then analyzed by Cerenkov counting. […]

[1] = tested on: bovine caudal epididymal sperm; assay: Sperm motility by computer-automated sperm motility analysis (CASMA), Forward Motility Index; type: cell-based
Experimental: (A) Sperm were incubated in buffer A containing s-Ht31 at 5 μM (circle), 10 μM (square) or 50 μM (diamond) or a control peptide, S-Ht31-P at 50 μM (cross). Motility was assessed at the times indicated by computer-automated sperm motility analysis (CASMA) as described in Experimental Procedures. (B) Sperm were incubated for 5 min in buffer A containing increasing concentrations of S-Ht31 (diamonds) or control peptide S-Ht31-P (triangle) and motility was assessed.
(A) Bovine caudal epididymal sperm were suspended in buffer A supplemented with 2 mM calcium (+Calcium) or 2 mM EGTA (-Calcium). Motility was assessed by CASMA at 5, 30 and 60 min following addition of either water (control) or 10 μM s-Ht31. (B) Sperm were incubated in buffer A containing 2 mM calcium and 50 mM bicarbonate (where indicated). Motility was assessed at 5, 30 and 60 min following addition of either water (control) or 10 μM s-Ht31.
as §1
Sperm Preparation. […]
Sperm Motility Measurement. Head motility parameters were determined as previously described (Vijayaraghavan et al., Biol. Reprod 54:709-718, 1996; Stephens et al., Biol. Reprod. 38:577-586, 1988). […] After bulk fluid movement had subsided, six different locations on the slide were recorded. The videotaped segments were analyzed by a computerized image-analysis system (CASMA) as previously described (Vijayaraghavan et al., Biol. Reprod. 54:709-718, 1996; Stephens et al., Biol. Reprod. 38:577-586, 1988). […] FMI is a product of percent motile (%M, percent of sperm moving at velocity greater than […]) and average velocity (Va, the five-point smoothed average of the head positions through at least 20 of the 30 frames analyzed).

bovine caput sperm = assay: Caput sperm motility by CASMA; type: cell-based; conditions: 50 μM H-89 added 15 min prior to 50 μM CDA
Experimental: (A). Bovine caudal and caput sperm were incubated in buffer A in the presence or absence of 50 μM CDA and/or 50 μM H-89. When sperm were treated with both CDA and H-89, the H-89 was added 15 min prior to CDA. Motility was assessed by CASMA at 15 min following treatment. (B) Bovine sperm were incubated as described for A and then assessed for PKA activity. Where indicated, 10 μM cAMP was added to the PKA assay. Sperm Preparation. Testes from mature bulls with intact tunica were obtained from a local slaughter house and sperm from caput or caudal epididymis were isolated and washed as previously described (Vijayaraghavan et al., Biol. Reprod. 32:489-500, 1985). […] Head motility parameters were determined as previously described (Vijayaraghavan et al., Biol. Reprod 54:709-718, 1996; Stephens et al., Biol. Reprod. 38:577-586, 1988). […] After bulk fluid movement had subsided, six different locations on the slide were recorded. The videotaped segments were analyzed by a computerized image-analysis system (CASMA) as previously described (Vijayaraghavan et al., Biol. Reprod. 54:709-718, 1996; Stephens et al., Biol. Reprod. 38:577-586, 1988). […] FMI is a product of percent motile (%M, percent of sperm moving at velocity greater than […]) and average velocity (Va, the five-point smoothed average of the head positions through at least 20 of the 30 frames analyzed).

sperm = type: cell-based, bovine
Experimental: To determine if S-Ht31 affects sperm viability or structural integrity, the vital dyes SYBR-green and rhodamine 123 were added to sperm before and after treatment with S-Ht31. Only viable, intact cells take up these dyes.

Which “increase of basal PKA activity” value (PKA; both caudal and caput sperm, absence of cAMP) does the source give for `Nc1nc(Cl)nc2c1ncn2[C@H]1C[C@H](O)[C@@H](CO)O1` [CDA, 2-chloro-2-deoxyadenosine] here?
Its value is “approximately 60%”.

And the “sperm motility under conditions where sperm PKA is inhibited” value ([1]; with H-89)?
Its value is “still induce or stimulate sperm motility”.

Which “effect on cellular PKA activity” value (PKA; sperm washed before lysis) does the source give for `O=S(=O)(NCCNCC=Cc1ccc(Br)cc1)c1cccc2cnccc12` [H-89, N-[2-(p-bromocinnamylamino)ethyl]-5-isoquinoline-sulfonamide] here?
Its value is “strongly inhibited PKA activity”.

And the “effect of preincubation on motility induction by CDA in caput sperm” value (bovine caput sperm)?
The value was “unaffected”.

What about the “effect on sperm motility stimulated by CDA” value ([1]; 50 μM H-89, 50 μM CDA) of the same compound?
The value was “had no effect”.

What about the inhibition at 50 µM ([1]; Bos taurus, Sperm, 50 μM, read-out: inhibition of basal sperm motility) of the same compound?
Its inhibition at 50 µM is ≤ 50%.

For `C[C@@H]1CC[C@@]2(OC1)O[C@H]1[C@@H](O)[C@H]3[C@@H]4CC[C@H]5C[C@@H](O[C@@H]6O[C@H](CO)[C@H](O[C@@H]7O[C@H](CO)[C@@H](O)[C@H](O[C@@H]8OC[C@@H](O)[C@H](O)[C@H]8O)[C@H]7O[C@@H]7O[C@H](CO)[C@H](O)[C@H](O[C@@H]8O[C@H](CO)[C@@H](O)[C@H](O)[C@H]8O)[C@H]7O)[C@H](O)[C@H]6O)[C@H](O)C[C@]5(C)[C@H]4CC[C@]3(C)[C@H]1[C@@H]2C` [digitonin], which “release of dyes from sperm loaded with BCECF or Fura 2 (plasma membrane integrity)” value (sperm) is on record?
Its value is “caused release of these dyes”.

What does the source list for `CCCCCCCCCCCCCCCCCC(=O)N[C@@H](CC(=O)O)C(=O)N[C@@H](CC(C)C)C(=O)N[C@H](C(=O)N[C@@H](CCC(=O)O)C(=O)N[C@@H](CCC(=O)O)C(=O)N[C@@H](C)C(=O)N[C@@H](C)C(=O)N[C@@H](CO)C(=O)N[C@@H](CCCNC(=N)N)C(=O)N[C@H](C(=O)N[C@H](C(=O)N[C@@H](CC(=O)O)C(=O)N[C@@H](C)C(=O)N[C@H](C(=O)N[C@H](C(=O)N[C@@H](CCC(=O)O)C(=O)N[C@@H](CCC(N)=O)C(=O)N[C@H](C(=O)N[C@@H](CCCCN)C(=O)N[C@@H](C)C(=O)N[C@@H](C)C(=O)NCC(=O)N[C@@H](C)C(=O)N[C@@H](Cc1ccc(O)cc1)C(=O)O)C(C)C)[C@@H](C)CC)C(C)C)C(C)C)[C@@H](C)CC)[C@@H](C)CC` [s-Ht31]?
release of dyes from sperm loaded with BCECF or Fura 2 (plasma membrane integrity) (sperm): did not compromise the integrity of the plasma membrane; sperm viability and plasma membrane integrity (uptake of vital dyes SYBR-green and rhodamine 123) (sperm): did not decrease viability or disrupt the integrity of the sperm plasma membrane
